Data as given in PubChem BioAssay (NCI).
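Assay format: 96-well plates, 48-hour exposure. GI50 is the concentration that inhibits growth by half. TGI denotes the concentration required for complete inhibition of growth.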

These molecules were tested on ACHN renal (assay: inhibition of tumour cell growth, NCI panel, 48 h).

| Compound | GI50 [µM] | TGI [µM] |
| --- | --- | --- |
| COc1cccc2c(=O)c3c(sc12)c(N1CCNCC1)nc1ccccc13 | 1.6 | 2.97 |
| COc1c(CCl)cc(-c2cc(=O)c3ccccc3s2)cc1CCl | – | > 100 |
| O=c1cc(NC2CCN(CCCc3ccccc3)CC2)c2cc(Cl)ccc2o1 | 4.86 | 17.6 |
| Nc1nc(F)nc2c1ncn2C1OC(CO)C(O)C1O (stereo unspecified) | 23.2 | > 100 |
| CCn1c(SCc2ccc(C)cc2)nnc1-c1nn(-c2ccc(Cl)cc2Cl)c(-c2ccc(Cl)cc2)c1C | 2.74 | 10.4 |
| CCn1c(-c2ccc(OC(C)=O)cc2)c(C)c2cc(OC(C)=O)ccc21 | – | > 100 |
| O=c1cccc(C#CC#CC2=CCCCC2)o1 | 4.49 | 10 |
| O=C1Nc2ccc(F)cc2/C1=C/c1ccc[nH]1 | 18.5 | > 25 |
| Br[C](Br)(Br)[Hg][c]1ccccc1 | 17.1 | 30.8 |
| COc1ccc(CC2NCCc3cc(OC)c(OC)cc32)cc1Br (stereo unspecified) | – | > 100 |
| CCOc1cc(C(C)(C)C)ccc1C1=N[C@@](C)(c2ccc(Cl)cc2)[C@@](C)(c2ccc(Cl)cc2)N1C(=O)N1CCN(CCCS(C)(=O)=O)CC1 | 0.505 | 11.3 |

What follows are molecules tested on OVCAR-5 ovarian (assay: inhibition of tumour cell growth, NCI panel, 48 h).

| Compound | GI50 [µM] | TGI [µM] |
| --- | --- | --- |
| COc1cccc2c(=O)c3c(sc12)c(N1CCNCC1)nc1ccccc13 | 1.79 | 3.24 |
| COc1c(CCl)cc(-c2cc(=O)c3ccccc3s2)cc1CCl | – | > 100 |
| O=c1cc(NC2CCN(CCCc3ccccc3)CC2)c2cc(Cl)ccc2o1 | 10.8 | 24.6 |
| Nc1nc(F)nc2c1ncn2C1OC(CO)C(O)C1O (stereo unspecified) | – | > 100 |
| CCn1c(SCc2ccc(C)cc2)nnc1-c1nn(-c2ccc(Cl)cc2Cl)c(-c2ccc(Cl)cc2)c1C | 3.54 | 15.2 |
| CCn1c(-c2ccc(OC(C)=O)cc2)c(C)c2cc(OC(C)=O)ccc21 | – | 55 |
| O=c1cccc(C#CC#CC2=CCCCC2)o1 | 6.21 | 10.2 |
| O=C1Nc2ccc(F)cc2/C1=C/c1ccc[nH]1 | > 21.3 | > 25 |
| Br[C](Br)(Br)[Hg][c]1ccccc1 | 15.4 | 28.8 |
| COc1ccc(CC2NCCc3cc(OC)c(OC)cc32)cc1Br (stereo unspecified) | – | > 77.7 |
| CCOc1cc(C(C)(C)C)ccc1C1=N[C@@](C)(c2ccc(Cl)cc2)[C@@](C)(c2ccc(Cl)cc2)N1C(=O)N1CCN(CCCS(C)(=O)=O)CC1 | 8.41 | 20.8 |

The molecules below were run on SNB-75 CNS (assay: inhibition of tumour cell growth, NCI panel, 48 h).

| Compound | GI50 [µM] | TGI [µM] |
| --- | --- | --- |
| COc1cccc2c(=O)c3c(sc12)c(N1CCNCC1)nc1ccccc13 | 1.56 | 2.98 |
| COc1c(CCl)cc(-c2cc(=O)c3ccccc3s2)cc1CCl | – | 24.9 |
| O=c1cc(NC2CCN(CCCc3ccccc3)CC2)c2cc(Cl)ccc2o1 | 8.1 | 21.1 |
| Nc1nc(F)nc2c1ncn2C1OC(CO)C(O)C1O (stereo unspecified) | – | > 100 |
| CCn1c(SCc2ccc(C)cc2)nnc1-c1nn(-c2ccc(Cl)cc2Cl)c(-c2ccc(Cl)cc2)c1C | 2.21 | 11.7 |
| CCn1c(-c2ccc(OC(C)=O)cc2)c(C)c2cc(OC(C)=O)ccc21 | – | 50.2 |
| O=c1cccc(C#CC#CC2=CCCCC2)o1 | 7.1 | 36.8 |
| O=C1Nc2ccc(F)cc2/C1=C/c1ccc[nH]1 | > 25 | > 25 |
| Br[C](Br)(Br)[Hg][c]1ccccc1 | 15.8 | 32.6 |
| COc1ccc(CC2NCCc3cc(OC)c(OC)cc32)cc1Br (stereo unspecified) | – | > 83.2 |
| CCOc1cc(C(C)(C)C)ccc1C1=N[C@@](C)(c2ccc(Cl)cc2)[C@@](C)(c2ccc(Cl)cc2)N1C(=O)N1CCN(CCCS(C)(=O)=O)CC1 | 3.64 | 17.3 |

These molecules were tested on BT-549 breast (assay: inhibition of tumour cell growth, NCI panel, 48 h).

| Compound | GI50 [µM] | TGI [µM] |
| --- | --- | --- |
| COc1cccc2c(=O)c3c(sc12)c(N1CCNCC1)nc1ccccc13 | 13.3 | 27.5 |
| COc1c(CCl)cc(-c2cc(=O)c3ccccc3s2)cc1CCl | – | > 100 |
| O=c1cc(NC2CCN(CCCc3ccccc3)CC2)c2cc(Cl)ccc2o1 | 12.9 | 26.8 |
| Nc1nc(F)nc2c1ncn2C1OC(CO)C(O)C1O (stereo unspecified) | – | > 100 |
| CCn1c(SCc2ccc(C)cc2)nnc1-c1nn(-c2ccc(Cl)cc2Cl)c(-c2ccc(Cl)cc2)c1C | 1.79 | 5.75 |
| CCn1c(-c2ccc(OC(C)=O)cc2)c(C)c2cc(OC(C)=O)ccc21 | – | 88.8 |
| O=c1cccc(C#CC#CC2=CCCCC2)o1 | 2.57 | – |
| O=C1Nc2ccc(F)cc2/C1=C/c1ccc[nH]1 | > 18.8 | > 25 |
| Br[C](Br)(Br)[Hg][c]1ccccc1 | 17.2 | 31.1 |
| COc1ccc(CC2NCCc3cc(OC)c(OC)cc32)cc1Br (stereo unspecified) | – | > 100 |
| CCOc1cc(C(C)(C)C)ccc1C1=N[C@@](C)(c2ccc(Cl)cc2)[C@@](C)(c2ccc(Cl)cc2)N1C(=O)N1CCN(CCCS(C)(=O)=O)CC1 | 2.76 | 15.1 |

The molecules below were run on A498 renal (assay: inhibition of tumour cell growth, NCI panel, 48 h).

| Compound | GI50 [nM] | TGI [µM] |
| --- | --- | --- |
| COc1cccc2c(=O)c3c(sc12)c(N1CCNCC1)nc1ccccc13 | 1690 | 3.14 |
| COc1c(CCl)cc(-c2cc(=O)c3ccccc3s2)cc1CCl | – | 90.7 |
| O=c1cc(NC2CCN(CCCc3ccccc3)CC2)c2cc(Cl)ccc2o1 | 42.3 | 6.92 |
| Nc1nc(F)nc2c1ncn2C1OC(CO)C(O)C1O (stereo unspecified) | > 100000 | > 100 |
| CCn1c(SCc2ccc(C)cc2)nnc1-c1nn(-c2ccc(Cl)cc2Cl)c(-c2ccc(Cl)cc2)c1C | 1370 | 7.88 |
| CCn1c(-c2ccc(OC(C)=O)cc2)c(C)c2cc(OC(C)=O)ccc21 | – | 70.4 |
| O=c1cccc(C#CC#CC2=CCCCC2)o1 | 19800 | 36.8 |
| O=C1Nc2ccc(F)cc2/C1=C/c1ccc[nH]1 | > 25000 | > 25 |
| Br[C](Br)(Br)[Hg][c]1ccccc1 | 16200 | 30 |
| COc1ccc(CC2NCCc3cc(OC)c(OC)cc32)cc1Br (stereo unspecified) | – | > 79.1 |
| CCOc1cc(C(C)(C)C)ccc1C1=N[C@@](C)(c2ccc(Cl)cc2)[C@@](C)(c2ccc(Cl)cc2)N1C(=O)N1CCN(CCCS(C)(=O)=O)CC1 | 1640 | 9.46 |
